Assay results published in US6914045B2, “Glycopeptide antibiotics” (Wyeth Holdings Corporation, priority 2001, dated 2005).
Converted amounts (≈) assume the structure as drawn.

Columns and labels:
Experiment in all cases: in vitro antibacterial evaluation, MIC by broth dilution
Assay type in all cases: cell-based
Enterococcus sp. = conditions: broth dilution, 18 hours at 35° C.
In short: (§1)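 Following National Committee for Clinical Laboratory Standards recommendations (M7-A2), susceptibility was measured by dilution in Muller-Hinton II […]. Bacteria were seeded at 5×10^5 CFU/mL against compound concentrations from 64 down to 0.06 μg/mL.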

Streptococcus sp. = conditions: broth dilution, 18 hours at 35° C.
In short: as §1

Escherichia coli = conditions: 18 hours at 35° C., strain ATCC 25922
In short: as §1

Staphylococcus sp. = conditions: broth dilution, 18 hours at 35° C.
In short: as §1

Q: How did the “MIC Enterococcus avium (GC 4558)” value (Enterococcus sp.; Enterococcus avium (GC 4558)) turn out when `CCCCCCCC1OCC2OC(OC3C(CO)OC(Oc4ccc(CC5NC(=O)C(C(C)c6ccccc6)NC(=O)CNC(=O)C(CO)NC(=O)C(C(O)C6CNC(=N)N6C6OC(CO)C(O)C(O)C6O)NC(=O)C(C(O)C6CNC(=N)N6)NC5=O)cc4)C(O)C3O)C(O)C(O)C2O1` (stereo not drawn) [Example 109, Cyclo[glycyl-β-methylphenylalanyl-O-[4-O-(4,6-O-octylidenehexopyranosyl)hexopyranosyl]-tyrosyl-3-(2-iminoimidazolidin-4-yl)seryl-3-(3-hexopyranosyl-2-iminoimidazolidin-4-yl)-serylseryl]] was run?
A: 2 µg/mL (≈ 1.42 µM)

Q: What about the “MIC Enterococcus faecalis (ATCC 29212)” value (Enterococcus sp.; Enterococcus faecalis (ATCC 29212)) of the same compound?
A: 2 µg/mL (≈ 1.42 µM)

Q: What about the “MIC Enterococcus faecalis (GC 2242)” value (Enterococcus sp.; Enterococcus faecalis (GC 2242)) of the same compound?
A: 2 µg/mL (≈ 1.42 µM)

Q: And the “MIC Enterococcus faecalis (GC 4552)” value (Enterococcus sp.; Enterococcus faecalis (GC 4552))?
A: 2 µg/mL (≈ 1.42 µM)

Q: What about the “MIC Enterococcus faecalis (GC 4553)” value (Enterococcus sp.; Enterococcus faecalis (GC 4553)) of the same compound?
A: 2 µg/mL (≈ 1.42 µM)

Q: What about the “MIC Enterococcus faecalis (GC 4554)” value (Enterococcus sp.; Enterococcus faecalis (GC 4554)) of the same compound?
A: 2 µg/mL (≈ 1.42 µM)

Q: What about the “MIC Enterococcus faecium (GC 2243)” value (Enterococcus sp.; Enterococcus faecium (GC 2243)) of the same compound?
A: 1 µg/mL (≈ 0.712 µM)

Q: What about the “MIC Enterococcus faecium (GC 4556)” value (Enterococcus sp.; Enterococcus faecium (GC 4556)) of the same compound?
A: 2 µg/mL (≈ 1.42 µM)

Q: What about the “MIC Enterococcus faecium (GC 4557)” value (Enterococcus sp.; Enterococcus faecium (GC 4557)) of the same compound?
A: 1 µg/mL (≈ 0.712 µM)

Q: What about the “MIC Enterococcus faecalis (ATCC 29212)” value (Enterococcus sp.; strain ATCC 29212) of the same compound?
A: 2 µg/mL (≈ 1.42 µM)

Q: And the “MIC Enterococcus faecalis (GC 2242)” value (Enterococcus sp.; strain GC 2242)?
A: 2 µg/mL (≈ 1.42 µM)

Q: What about the “MIC Enterococcus faecium (GC 2243)” value (Enterococcus sp.; strain GC 2243) of the same compound?
A: 1 µg/mL (≈ 0.712 µM)

Q: And the “MIC Enterococcus faecalis (GC 4552)” value (Enterococcus sp.; strain GC 4552)?
A: 2 µg/mL (≈ 1.42 µM)

Q: What about the “MIC Enterococcus faecalis (GC 4553)” value (Enterococcus sp.; strain GC 4553) of the same compound?
A: 2 µg/mL (≈ 1.42 µM)

Q: And the “MIC Enterococcus faecalis (GC 4554)” value (Enterococcus sp.; strain GC 4554)?
A: 2 µg/mL (≈ 1.42 µM)

Q: What about the “MIC Enterococcus faecium (GC 4556)” value (Enterococcus sp.; strain GC 4556) of the same compound?
A: 2 µg/mL (≈ 1.42 µM)

Q: And the “MIC Enterococcus faecium (GC 4557)” value (Enterococcus sp.; strain GC 4557)?
A: 1 µg/mL (≈ 0.712 µM)

Q: And the “MIC Enterococcus avium (GC 4558)” value (Enterococcus sp.; strain GC 4558)?
A: 2 µg/mL (≈ 1.42 µM)

Q: And the “MIC Streptococcus agalactiae (GC 4564)” value (Streptococcus sp.; Streptococcus agalactiae (GC 4564))?
A: <0.5 µg/mL

Q: What about the “MIC Streptococcus pneumoniae (GC 4565)” value (Streptococcus sp.; Streptococcus pneumoniae (GC 4565)) of the same compound?
A: <0.5 µg/mL

Q: And the “MIC Streptococcus pyogenes (ID-3187)” value (Streptococcus sp.; Streptococcus pyogenes (ID-3187))?
A: <0.5 µg/mL

Q: And the “MIC Streptococcus agalactiae (GC 4564)” value (Streptococcus sp.; strain GC 4564)?
A: <0.5 µg/mL

Q: And the “MIC Streptococcus pneumoniae (GC 4565)” value (Streptococcus sp.; strain GC 4565)?
A: <0.5 µg/mL

Q: And the “MIC Streptococcus pyogenes (ID-3187)” value (Streptococcus sp.; strain ID-3187)?
A: <0.5 µg/mL

Q: What about the “MIC Escherichia coli (ATCC 25922)” value (Escherichia coli) of the same compound?
A: 16 µg/mL (≈ 11.4 µM)

Q: And the “MIC Coagulase Negative Staphylococcus (GC 4547)” value (Staphylococcus sp.)?
A: 1 µg/mL (≈ 0.712 µM)

Q: And the “MIC Coagulase Negative Staphylococcus (GC 4548)” value (Staphylococcus sp.)?
A: <0.5 µg/mL

Q: What about the “MIC Coagulase Negative Staphylococcus (GC 4549)” value (Staphylococcus sp.) of the same compound?
A: 1 µg/mL (≈ 0.712 µM)

Q: What about the “MIC Coagulase Negative Staphylococcus (GC 4551)” value (Staphylococcus sp.) of the same compound?
A: 1 µg/mL (≈ 0.712 µM)

Q: And the “MIC Coagulase Negative Staphylococcus (ID-3941)” value (Staphylococcus sp.)?
A: 1 µg/mL (≈ 0.712 µM)

Q: What about the “MIC Staphylococcus aureus (ATCC 29213)” value (Staphylococcus sp.) of the same compound?
A: 1 µg/mL (≈ 0.712 µM)

Q: What about the “MIC Staphylococcus aureus (GC 1131)” value (Staphylococcus sp.) of the same compound?
A: 1 µg/mL (≈ 0.712 µM)

Q: What about the “MIC Staphylococcus aureus (GC 4541)” value (Staphylococcus sp.) of the same compound?
A: 1 µg/mL (≈ 0.712 µM)

Q: What about the “MIC Staphylococcus aureus (GC 4542)” value (Staphylococcus sp.) of the same compound?
A: 1 µg/mL (≈ 0.712 µM)

Q: What about the “MIC Staphylococcus aureus (GC 4544)” value (Staphylococcus sp.) of the same compound?
A: 1 µg/mL (≈ 0.712 µM)

Q: And the “MIC Staphylococcus aureus (GC 4545)” value (Staphylococcus sp.)?
A: 1 µg/mL (≈ 0.712 µM)

Q: What about the “MIC Staphylococcus aureus-SMITH (GC 4543)” value (Staphylococcus sp.) of the same compound?
A: 1 µg/mL (≈ 0.712 µM)

Q: And the “MIC Staphylococcus haemolyticus (GC 4546)” value (Staphylococcus sp.)?
A: 1 µg/mL (≈ 0.712 µM)

Q: What about the “MIC Staphylococcus aureus (GC 1131)” value (Staphylococcus sp.; inoculum 5×10^5 CFU/mL, strain GC 1131) of the same compound?
A: 1 µg/mL (≈ 0.712 µM)

Q: What about the “MIC Staphylococcus aureus (ATCC 29213)” value (Staphylococcus sp.; strain ATCC 29213) of the same compound?
A: 1 µg/mL (≈ 0.712 µM)

Q: What about the “MIC Staphylococcus aureus (GC 4541)” value (Staphylococcus sp.; strain GC 4541) of the same compound?
A: 1 µg/mL (≈ 0.712 µM)

Q: What about the “MIC Staphylococcus aureus (GC 4542)” value (Staphylococcus sp.; strain GC 4542) of the same compound?
A: 1 µg/mL (≈ 0.712 µM)

Q: What about the “MIC Staphylococcus aureus (GC 4544)” value (Staphylococcus sp.; strain GC 4544) of the same compound?
A: 1 µg/mL (≈ 0.712 µM)

Q: And the “MIC Staphylococcus aureus (GC 4545)” value (Staphylococcus sp.; strain GC 4545)?
A: 1 µg/mL (≈ 0.712 µM)

Q: And the “MIC Staphylococcus haemolyticus (GC 4546)” value (Staphylococcus sp.; strain GC 4546)?
A: 1 µg/mL (≈ 0.712 µM)

Q: And the “MIC Coagulase Negative Staphylococcus (GC 4547)” value (Staphylococcus sp.; strain GC 4547)?
A: 1 µg/mL (≈ 0.712 µM)

Q: And the “MIC Coagulase Negative Staphylococcus (GC 4548)” value (Staphylococcus sp.; strain GC 4548)?
A: <0.5 µg/mL

Q: What about the “MIC Coagulase Negative Staphylococcus (GC 4549)” value (Staphylococcus sp.; strain GC 4549) of the same compound?
A: 1 µg/mL (≈ 0.712 µM)

Q: What about the “MIC Coagulase Negative Staphylococcus (GC 4551)” value (Staphylococcus sp.; strain GC 4551) of the same compound?
A: 1 µg/mL (≈ 0.712 µM)

Q: What about the “MIC Coagulase Negative Staphylococcus (ID-3941)” value (Staphylococcus sp.; strain ID-3941) of the same compound?
A: 1 µg/mL (≈ 0.712 µM)

Q: What about the “MIC Staphylococcus aureus-SMITH (GC 4543)” value (Staphylococcus sp.; strain SMITH GC 4543) of the same compound?
A: 1 µg/mL (≈ 0.712 µM)
